Source: the supplement of paper PMC10307832

How the values were obtained:
Experiment in all cases: relative viability (nuclei count vs DMSO), 5 days (fraction); higher = more cells survive
BMX-IN-1 + Vorinostat = compound: C=CC(=O)Nc1cc(-n2c(=O)ccc3cnc4ccc(-c5ccc(NS(C)(=O)=O)cc5)cc4c32)ccc1C [BMX-IN-1] + O=C(CCCCCCC(=O)Nc1ccccc1)NO [Vorinostat] (partner 1 µM)
Summary of the method: (§1)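 Dosing by pin tool came one day after lung cancer cell lines were seeded in 1536-well plates, using either one drug or a fixed anchor-drug dose plus five library-drug doses (not always all listed) in √10 steps. After 5 days, nuclei were counted on 4× images. Relative viability is treated-well nuclei count divided by vehicle-well nuclei count, and values are medians of duplicate plates.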

BMX-IN-1 + Trametinib = compound: C=CC(=O)Nc1cc(-n2c(=O)ccc3cnc4ccc(-c5ccc(NS(C)(=O)=O)cc5)cc4c32)ccc1C [BMX-IN-1] + CC(=O)Nc1cccc(-n2c(=O)n(C3CC3)c(=O)c3c(Nc4ccc(I)cc4F)n(C)c(=O)c(C)c32)c1 [Trametinib] (partner 0.02 µM)
Summary of the method: as §1

PAC-1 + Dasatinib = compound: C=CCc1cccc(/C=N/NC(=O)CN2CCN(Cc3ccccc3)CC2)c1O [PAC-1] + Cc1nc(Nc2ncc(C(=O)Nc3c(C)cccc3Cl)s2)cc(N2CCN(CCO)CC2)n1 [Dasatinib] (partner 0.075 µM)
Summary of the method: as §1

Ibrutinib + Alpelisib = compound: C=CC(=O)N1CCC[C@@H](n2nc(-c3ccc(Oc4ccccc4)cc3)c3c(N)ncnc32)C1 [Ibrutinib] + Cc1nc(NC(=O)N2CCC[C@H]2C(N)=O)sc1-c1ccnc(C(C)(C)C(F)(F)F)c1 [Alpelisib] (partner 2 µM)
Summary of the method: as §1

Cell Line	relative viability (BMX-IN-1 + Vorinostat; first compound 0.02 µM)	relative viability (BMX-IN-1 + Vorinostat; first compound 0.2 µM)	relative viability (BMX-IN-1 + Vorinostat; first compound 0.6325 µM)	relative viability (BMX-IN-1 + Vorinostat; first compound 2 µM)	relative viability (BMX-IN-1 + Trametinib; first compound 0.02 µM)	relative viability (BMX-IN-1 + Trametinib; first compound 0.2 µM)	relative viability (BMX-IN-1 + Trametinib; first compound 0.6325 µM)	relative viability (BMX-IN-1 + Trametinib; first compound 2 µM)	relative viability (PAC-1 + Dasatinib; first compound 0.02 µM)	relative viability (PAC-1 + Dasatinib; first compound 0.06325 µM)	relative viability (PAC-1 + Dasatinib; first compound 0.2 µM)	relative viability (PAC-1 + Dasatinib; first compound 2 µM)	relative viability (Ibrutinib + Alpelisib; first compound 0.005 µM)	relative viability (Ibrutinib + Alpelisib; first compound 0.01581 µM)	relative viability (Ibrutinib + Alpelisib; first compound 0.05 µM)	relative viability (Ibrutinib + Alpelisib; first compound 0.1581 µM)	relative viability (Ibrutinib + Alpelisib; first compound 0.5 µM)
NCI-H596	0.685	0.84	0.67	0.666	0.718	0.912	0.652	0.825	0.571	0.659	0.573	0.664	0.482	0.503	0.51	0.503	0.479
NCI-H647	0.709	0.725	0.663	0.495	0.702	0.563	0.467	0.474	0.203	0.172	0.185	0.164	1.15	1.01	1.14	1.45	1.21
NCI-H650	0.475	0.52	0.48	0.438	1.01	0.912	0.979	0.919	0.426	0.455	0.406	0.45	–	1	–	1.26	1.13
NCI-H661	0.878	0.877	0.857	0.743	0.634	0.597	0.642	0.535	0.992	1	0.89	0.892	0.467	0.68	0.358	0.524	0.216
NCI-H727	1.11	1.3	1.29	1.2	0.419	0.429	0.387	0.4	0.334	0.338	0.368	0.358	0.519	0.556	0.433	0.576	0.435
NCI-H838	0.827	0.64	0.728	0.73	0.605	0.518	0.562	0.568	0.247	0.278	0.243	0.311	0.836	1	1.14	1.01	0.987
NCI-H1355	0.705	0.706	0.697	0.76	0.385	0.459	0.463	0.45	0.75	0.722	0.667	0.711	–	0.704	0.782	0.887	0.646
NCI-H1395	0.764	0.708	0.942	0.746	1.19	1.12	0.958	0.966	0.403	0.476	0.387	0.422	0.997	0.988	1.35	1.16	0.997
NCI-H1437	0.964	0.866	0.896	0.949	0.677	0.489	0.605	0.614	0.298	0.425	0.459	0.278	0.958	0.937	1.01	0.988	1.03
NCI-H1651	0.481	0.585	0.604	0.552	0.866	0.908	0.879	0.893	0.391	0.446	0.394	0.393	0.903	0.938	0.995	0.935	1.1
NCI-H1666	1.03	1.05	1.13	1.15	0.788	1.06	0.977	0.885	0.834	0.845	0.793	0.836	0.677	0.726	–	1.11	0.426
NCI-H1734	0.81	0.927	0.866	0.902	0.732	0.751	0.735	0.7	0.361	0.521	0.397	0.51	0.557	0.583	0.705	0.669	0.654
NCI-H1755	0.72	0.849	0.812	0.8	0.703	0.81	0.853	0.695	0.426	0.446	0.384	0.443	0.939	0.893	1.03	0.981	0.932
NCI-H1793	0.998	0.563	0.856	0.849	0.544	0.454	0.505	0.454	0.373	0.373	0.364	0.412	–	0.635	0.605	0.587	0.575
NCI-H1915	0.576	0.531	0.564	0.53	0.326	0.302	0.519	0.317	0.313	0.336	0.317	0.29	–	1	1.06	1.07	1.05
NCI-H1944	0.519	0.659	0.598	0.578	0.395	0.416	0.419	0.392	0.209	0.222	0.204	0.216	0.659	0.685	0.784	0.755	0.521
NCI-H1975	0.707	0.754	0.737	0.703	0.309	0.348	0.395	0.377	0.358	0.363	0.336	0.347	0.594	0.418	0.475	0.634	0.212
